# Experimental data as given in patent US5444049A, “Peptide compounds derived from boronic acid” (Adir et Compagnie, priority 1993, dated 1995).
# Where two headings read alike, the source gives them in different places.
# What was measured:
# [1] = system: thrombin time of rat platelet-poor plasma; assay: Anticoagulant activity: thrombin time in rat plasma; assay type: biochemical; settings: rat plasma, 2 minutes at 37° C.
# Procedure: (§1) In the presence of a standard quantity of thrombin, a normal plasma coagulates in a defined and constant time, termed the thrombin time (TT). Any prolongation of this time reflects an abnormality of fibrin formation (coagulation).
# (§2) Sprague-Dawley rats are anesthetized with pentobarbital sodium (60 mg/kg i.p.), the carotid artery is catheterized and blood samples are taken into trisodium citrate solution (0.109M). A platelet-poor plasma is obtained by centrifugation of the blood samples (3000 g, 15 minutes). Samples of venous blood are also taken from humans at the bend of the arm. Anticoagulation of the samples and preparation of platelet-poor plasma are identical to those carried out with rat blood.
# (§3) The thrombin time is obtained with Prest thrombin reagent and determined automatically using a coagulometer.
# (§4) The antagonist or the solvent (10 μl) is added to the plasma (90 μl) and then incubated for 2 minutes at 37° C. 100 µl of thrombin are added as the chronometer is started.
# (§5) Under these conditions, the TT values obtained in the control plasma are of the order of 30 seconds in rats and 20 seconds in humans. The activity of an antagonist is evaluated by its capacity to prolong this thrombin time relative to the control.
# (§6) Under these conditions, the compounds of the invention permit a prolongation of the thrombin time of 50-fold and more. The effect of the inhibitors is measured, and the concentration which multiplies the thrombin time by 2 (CTT2) is determined.
# [2] = system: thrombin time of human platelet-poor plasma; assay: Anticoagulant activity: thrombin time in human plasma; assay type: biochemical; settings: human plasma, 2 minutes at 37° C.
# Procedure: as §1, §2, §3, §4, §5, §6
# purified human plasmin = biological target: T1, purified human plasmin (Homo sapiens, UniProt P00747); assay: Inhibition of plasmin; assay type: biochemical; settings: substrate S 2403
# T1 construct: purified human plasmin (2 nM, Stago); purchased Stago
# Procedure: (§7) To evaluate in vitro the selectivity of these products with respect to different serine proteases of fibrinolysis and of coagulation, the same protocol was applied to purified human plasmin (2 nM, Stago), to purified human activated protein C (2 nM, Stago), to purified human activated factor X (2 nM, Stago), to tissue plasminogen activator (2 nM, Calbiochem), to purified human urokinase (2 nM, Sigma) and to purified human plasma kallikrein (2 nM, Calbiochem), using different peptidyl para-nitroanilides as substrate: <Glu-Phe-Lys-pNA (0.50 mM, S 2403, Kabi) for plasmin, N-Cbo-Arg-Gly-Arg-pNA (0.38 mM, S 2765, Kabi) for factor Xa, <Glu-Pro-Arg-pNa (0.52 mM, S 2366, Kabi) for activated protein C, H-D-Pro-Phe-Arg-pNa (0.45 mM, S 2302, Kabi) for kallikrein, H-D-Ile-Pro-Arg-pNA (0.48 mM, S 2288, Kabi), <Glu-Gly-Arg-pNA (0.56 mM, S 2444, Kabi).
# (§8) Inhibitors, enzymes and substrates are diluted in the same buffer ([…] buffer, pH 7.4, containing 0.12M sodium chloride and 0.05% of bovine serum albumin), and then distributed in a polystyrene microplate in a volume of […].
# (§9) The fibrin formed by thrombin or by the para-nitroaniline liberated by the action of the serine protease is measured spectrophotometrically at 405 nm after 15 to 30 minutes of reaction at 20° C.
# [3] = biological target: T2, tissue plasminogen activator (Homo sapiens, UniProt P00750); assay: Inhibition of tissue plasminogen activator; assay type: biochemical; settings: peptidyl para-nitroanilide substrate
# T2 construct: purchased Calbiochem
# Procedure: as §7, §8, §9
# purified human urokinase = biological target: T3, purified human urokinase (Homo sapiens, UniProt P00749); assay: Inhibition of urokinase; assay type: biochemical; settings: peptidyl para-nitroanilide substrate
# T3 construct: purchased Sigma
# Procedure: as §7, §8, §9
# [4] = biological target: T4, purified human activated factor X (Homo sapiens, UniProt P00742); assay: Inhibition of activated factor X; assay type: biochemical; settings: substrate S 2765
# T4 construct: purchased Stago
# Procedure: as §7, §8, §9
# [5] = biological target: T5, purified human plasma kallikrein (Homo sapiens, UniProt P03952); assay: Inhibition of plasma kallikrein; assay type: biochemical; settings: substrate S 2302; read-out: IC50 Kalli
# T5 construct: to purified human plasma kallikrein (2 nM, Calbiochem); purchased Calbiochem
# Procedure: as §7, §8, §9
# [6] = biological target: T6, purified human activated protein C (Homo sapiens, UniProt P04070); assay: Inhibition of activated protein C; assay type: biochemical; settings: substrate S 2366
# T6 construct: purchased Stago
# Procedure: as §7, §8, §9
# OFA rats [7] = assay: Anticoagulant activity ex vivo, oral administration (conscious rats), thrombin time; assay type: in vivo, rat; settings: 10 mg/kg orally
# Procedure: Fasted OFA rats are anesthetized with ether. The cordal artery is exposed and catheterized. The catheter is flushed with citrated (1/40) physiological solution. After installation of the catheter, the animal is placed in a restraining cage and 1.5 cm^3 of arterial blood are withdrawn into 0.109M citrate (1/9).
# 1 hour after the animal has awoken, the test products are administered orally at a single dose of 10 mg/kg.
# Arterial blood samples (1.5 ml) are then withdrawn at 30 minutes, 60 minutes and 2 hours.
# As each sample is withdrawn, 1.5 ml of physio-logical solution are reinjected into the animals.
# The blood tubes are centrifuged for 15 minutes at 3000 g for preparation of the plasma. The time of onset of the coagulation phenomenon is measured after adding Prest thrombin.
# The results are reproduced in the following table, and show the factors by which the thrombin time is increased.
# OFA rats [8] = assay: Anticoagulant activity ex vivo, intravenous administration, activated cephalin time; assay type: in vivo, rat; settings: 0.5 mg/kg i.v.
# Procedure: OFA rats, fasted or otherwise, are anesthetized with pentobarbital (60 mg/kg i.p.). The carotid artery and the jugular vein are exposed and catheterized. The catheters are flushed with citrated (1/40) physiological solution. After installation of the catheters, a sample of 1.5 cm^3 of arterial blood is withdrawn into 0.109M citrate (1/9).
# 30 minutes later, the test product is administered i.v. in a volume of 1 ml.
# Arterial blood samples (1.5 ml) are then withdrawn at 1 minute 30 sec and 5, 15, 30 and 60 minutes.
# As each sample is withdrawn, 1.5 ml of citrated physiological solution are reinjected into the animal via the carotid.
# The blood tubes are centrifuged for 15 minutes at 3000 g (preparation of plasma). 100 μl of plasma are incubated with 100 gl of activated cephalin. The time of onset of the coagulation phenomenon is measured after adding 100 μl of calcium.
# The compounds of the invention, tested at a dose of 0.5 mg/kg, increase the activated cephalin time (ACT) in a dose-dependent manner. […] The increase in ACT noted with the compounds of the invention is still significant 60 minutes after their administration. The results are reproduced in the following table, and show the factors by which the coagulation time is increased.
# dogs [9] = assay: Anticoagulant activity p.o. in dogs, thrombin time; assay type: in vivo, dog
# Procedure: (§10) The products were administered orally to dogs.2 hours and 4 hours after the treatment, and blood was withdrawn via the intravenous route. The plasma is prepared, platelets counted and the thrombin time test is carried out.
# dogs [10] = assay: Thrombopenia p.o. in dogs, platelet count; assay type: in vivo, dog
# Procedure: as §10
# OFA rats [11] = assay: Anticoagulant activity ex vivo, intravenous administration, activated cephalin time; assay type: in vivo, rat; settings: 0.5 mg/kg i.v., 15.5 min
# human thrombin = biological target: T7, human thrombin (Homo sapiens, UniProt P00734); assay: Inhibition of human thrombin (fibrinogen or S2238 substrate); assay type: biochemical; settings: for IC50: 20° C.; for selectivity with respect to the serine proteases of coagulation and of fibrinolysis compared with DUP 714: thrombin versus other serine proteases; for potency on human thrombin compared with DUP 714: with respect to human fibrinogen
# T7 construct: human thrombin (Sigma, specific activity 3230 NIHU/mg); purchased Sigma
# Procedure: To evaluate in vitro the inhibitory activity of the boro-arginine products with respect to human thrombin (Sigma, specific activity 3230 NIHU/mg), purified human fibrinogen ([…], Stago) (Fg) or the chromogenic substrate H-D-Phe-Pip-Arg-pNa ([…], S2238, Kabi) was added to a given quantity of thrombin (0.7 or 2 nM) incubated beforehand with or without the inhibitor under test (20° C., 10 minutes).
# as §8, §9
# [12] = chromogenic substrate S2238, read-out: IC50 Thrombin S2238
# [13] = substrate purified human fibrinogen, read-out: IC50 Thrombin Fg
# T5 sequence (P03952 391-638 limits assumed): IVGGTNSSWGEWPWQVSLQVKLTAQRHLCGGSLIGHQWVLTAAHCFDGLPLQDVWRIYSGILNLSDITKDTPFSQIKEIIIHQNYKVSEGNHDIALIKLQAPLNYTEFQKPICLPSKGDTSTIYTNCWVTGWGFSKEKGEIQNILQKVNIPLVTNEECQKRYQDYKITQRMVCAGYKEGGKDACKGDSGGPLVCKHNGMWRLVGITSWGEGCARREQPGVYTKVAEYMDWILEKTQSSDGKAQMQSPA
# T5 sequence (P03952 20-390 limits assumed): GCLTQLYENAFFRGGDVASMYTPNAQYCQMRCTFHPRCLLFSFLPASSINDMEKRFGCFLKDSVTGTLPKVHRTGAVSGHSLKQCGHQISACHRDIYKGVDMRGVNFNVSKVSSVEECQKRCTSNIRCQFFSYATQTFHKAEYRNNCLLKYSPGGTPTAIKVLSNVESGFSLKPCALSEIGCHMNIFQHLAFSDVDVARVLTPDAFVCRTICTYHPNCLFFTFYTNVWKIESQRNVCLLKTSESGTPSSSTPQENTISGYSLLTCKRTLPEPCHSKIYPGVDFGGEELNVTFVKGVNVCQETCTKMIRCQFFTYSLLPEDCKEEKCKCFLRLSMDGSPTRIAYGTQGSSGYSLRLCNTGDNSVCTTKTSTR
# T2 sequence (P00750 36-562): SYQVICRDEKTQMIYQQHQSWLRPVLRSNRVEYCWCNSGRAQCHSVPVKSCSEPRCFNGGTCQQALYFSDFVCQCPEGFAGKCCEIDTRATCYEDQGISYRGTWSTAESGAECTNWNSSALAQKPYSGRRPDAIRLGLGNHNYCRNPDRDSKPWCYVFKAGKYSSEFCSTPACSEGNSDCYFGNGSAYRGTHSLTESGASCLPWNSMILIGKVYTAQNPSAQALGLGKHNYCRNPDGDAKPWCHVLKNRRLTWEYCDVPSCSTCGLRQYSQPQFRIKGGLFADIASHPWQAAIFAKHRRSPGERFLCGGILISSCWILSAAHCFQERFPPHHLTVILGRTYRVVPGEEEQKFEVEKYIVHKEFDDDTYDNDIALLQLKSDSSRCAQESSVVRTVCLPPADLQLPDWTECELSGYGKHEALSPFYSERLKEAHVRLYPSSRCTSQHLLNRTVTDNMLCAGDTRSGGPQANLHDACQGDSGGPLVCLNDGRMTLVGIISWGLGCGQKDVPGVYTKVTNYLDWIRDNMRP
# T6 sequence (P04070 212-461 limits assumed): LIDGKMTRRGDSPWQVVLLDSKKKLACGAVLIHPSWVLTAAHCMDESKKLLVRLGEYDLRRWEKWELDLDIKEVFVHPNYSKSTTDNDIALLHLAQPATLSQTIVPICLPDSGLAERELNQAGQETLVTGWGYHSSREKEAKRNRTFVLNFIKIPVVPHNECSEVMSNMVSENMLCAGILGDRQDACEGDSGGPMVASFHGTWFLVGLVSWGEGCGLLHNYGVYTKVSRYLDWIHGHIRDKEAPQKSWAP
# T6 sequence (P04070 43-197 limits assumed): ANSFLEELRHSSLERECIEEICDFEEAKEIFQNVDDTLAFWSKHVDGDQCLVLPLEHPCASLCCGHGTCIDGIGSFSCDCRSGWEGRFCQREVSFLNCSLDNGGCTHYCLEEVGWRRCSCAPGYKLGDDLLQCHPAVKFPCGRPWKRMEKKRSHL
# T4 sequence (P00742 235-488 limits assumed): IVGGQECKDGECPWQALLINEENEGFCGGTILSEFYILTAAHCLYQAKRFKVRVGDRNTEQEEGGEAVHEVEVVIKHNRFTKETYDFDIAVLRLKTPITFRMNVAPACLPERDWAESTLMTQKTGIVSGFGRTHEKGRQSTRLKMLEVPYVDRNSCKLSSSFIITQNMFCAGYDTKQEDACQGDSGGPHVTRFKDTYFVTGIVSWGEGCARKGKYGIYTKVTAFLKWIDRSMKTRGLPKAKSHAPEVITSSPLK
# T4 sequence (P00742 41-179 limits assumed): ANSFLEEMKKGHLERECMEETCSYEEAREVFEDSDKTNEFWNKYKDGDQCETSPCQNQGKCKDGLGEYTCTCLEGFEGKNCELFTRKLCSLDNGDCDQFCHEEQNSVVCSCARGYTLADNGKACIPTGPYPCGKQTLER
# T1 sequence (P00747 581-810 limits assumed): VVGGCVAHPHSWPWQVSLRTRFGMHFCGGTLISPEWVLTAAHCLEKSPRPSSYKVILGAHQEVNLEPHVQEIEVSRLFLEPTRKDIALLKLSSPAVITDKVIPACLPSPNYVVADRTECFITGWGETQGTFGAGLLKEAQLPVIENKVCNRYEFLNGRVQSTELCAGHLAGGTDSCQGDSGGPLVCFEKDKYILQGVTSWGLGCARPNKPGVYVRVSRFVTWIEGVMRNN
# T1 sequence (P00747 97-580 limits assumed): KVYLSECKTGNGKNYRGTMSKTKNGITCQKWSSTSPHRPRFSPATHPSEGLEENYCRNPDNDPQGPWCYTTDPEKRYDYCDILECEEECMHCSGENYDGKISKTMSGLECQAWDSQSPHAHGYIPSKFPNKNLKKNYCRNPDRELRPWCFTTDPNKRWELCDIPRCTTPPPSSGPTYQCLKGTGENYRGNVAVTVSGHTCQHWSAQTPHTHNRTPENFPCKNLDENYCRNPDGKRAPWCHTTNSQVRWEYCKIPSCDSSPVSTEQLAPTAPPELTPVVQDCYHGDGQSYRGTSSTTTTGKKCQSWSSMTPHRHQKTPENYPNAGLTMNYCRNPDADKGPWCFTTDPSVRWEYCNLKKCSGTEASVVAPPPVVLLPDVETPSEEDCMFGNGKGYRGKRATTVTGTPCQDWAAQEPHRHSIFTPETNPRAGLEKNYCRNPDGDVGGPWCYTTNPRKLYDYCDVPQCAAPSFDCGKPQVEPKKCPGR
SMILES,Man CTT2 (concentration which multiplies the thrombin time by 2) [2] [µM],IC50 (purified human plasmin) [nM],IC50 [3] [nM],IC50 (purified human urokinase) [nM],IC50 [4] [nM],IC50 [5] [nM],IC50 [6] [nM],IC50 (human thrombin; [12]) [nM],IC50 (human thrombin; [13]) [nM],selectivity with respect to the serine proteases of coagulation and of fibrinolysis compared with DUP 714 (human thrombin),potency on human thrombin compared with DUP 714 (human thrombin),other results
"CC(=O)N[C@H](Cc1ccccc1)C(=O)N1CCC[C@H]1C(=O)N[C@@H](CCCN=C(N)N)B(O)O [DUP 714, Ac-(D)Phe-Pro-Arg-boronic acid, reference compound]",0.18,28,8,24,41,8,17,,,,,"Rat CTT2 (concentration which multiplies the thrombin time by 2) [1]: 0.32 µM; factor by which the thrombin time is increased (OFA rats [7]; 0.5 hours): 4.0; factor by which the thrombin time is increased (OFA rats [7]; 1 hour): 3.7; factor by which the thrombin time is increased (OFA rats [7]; 2 hours): 3.9; factor by which the coagulation time (ACT) is increased (OFA rats [8]; 5 min): 3.4; factor by which the coagulation time (ACT) is increased (OFA rats [8]; 15 min): 2.0; factor by which the coagulation time (ACT) is increased (OFA rats [8]; 30 min): 1.7; factor by which the coagulation time (ACT) is increased (OFA rats [8]; 60 min): 1.4; Increase factor TT (dogs [9]; 2.5 mg/kg orally, 2 hr): 7; Increase factor TT (dogs [9]; 2.5 mg/kg orally, 4 hr): 2; thrombopenia (dogs [10]; 2.5 mg/kg orally): marked thrombopenia; Change in platelet count (% of control) (dogs [10]; 2.5 mg/kg orally, 2 hr): -32%; Change in platelet count (% of control) (dogs [10]; 2.5 mg/kg orally, 4 hr): -16%; factor by which the coagulation time (ACT) is increased (OFA rats [11]): 7.6"
"CC(=O)N[C@H](Cc1ccccc1)C(=O)N(CC(=O)N[C@@H](CCCNC(=N)N)B(O)O)C1CCC1.CC(=O)O [Ex. 25, 1-(R)-{[Ac-(R)Phe-(N-cyclobutyl)Gly]amino}-4-guanidinobutylboronic acid acetate]",,818,14,1640,356,75,211,2,0.45,greater selectivity,more potent inhibitors of human thrombin than the reference compound,
"CC(=O)N[C@H](Cc1ccccc1)C(=O)N(CC(=O)N[C@@H](CCCN=C(N)N)B(O)O)C1CCCC1.CC(=O)O [Ex. 28, 1-(R)-{[Ac-(R)Phe-(N-cyclopentyl)Gly]amino}-4-guanidinobutylboronic acid acetate]",0.19,445,47,1820,225,91,82,2,0.46,greater selectivity,more potent inhibitors of human thrombin than the reference compound,"Increase factor TT (dogs [9]; 5 mg/kg orally, 2 hr): 11; Increase factor TT (dogs [9]; 5 mg/kg orally, 4 hr): 2; Change in platelet count (% of control) (dogs [10]; 5 mg/kg orally, 2 hr): -4%; Change in platelet count (% of control) (dogs [10]; 5 mg/kg orally, 4 hr): +1%"
